From the supplement of paper PMC10307832

What was measured:
Assay in all cases: relative viability (nuclei count vs DMSO), 5 days (fraction); higher = more cells survive
[1] = compound: C1CN(CCC1C(C2=CC3=C(C=C2)OCO3)(C4=CC5=C(C=C4)OCO5)O)C(=O)OC6=CC=C(C=C6)[N+](=O)[O-] [JZL-184] + CC(=O)c1c(C)c2cnc(Nc3ccc(N4CCNCC4)cn3)nc2n(C2CCCC2)c1=O [Palbociclib] (partner 0.5 µM)
How it was run: (§1)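 Values are medians from duplicate plates. Each reflects relative viability, defined as the nuclei count of treated wells over that of vehicle wells. Lung cancer cell lines in 1536-well plates were pin-tool dosed one day after seeding with one drug alone or with a fixed anchor-drug dose plus five library-drug doses (not always all listed) in √10 steps, then fixed, stained and imaged at 4× after 5 days.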

[2] = compound: C1CN(CCC1C(C2=CC3=C(C=C2)OCO3)(C4=CC5=C(C=C4)OCO5)O)C(=O)OC6=CC=C(C=C6)[N+](=O)[O-] [JZL-184] + CS(=O)(=O)CCNCc1ccc(-c2ccc3ncnc(Nc4ccc(OCc5cccc(F)c5)c(Cl)c4)c3c2)o1 [Lapatinib] (partner 2 µM)
How it was run: as §1

[3] = compound: C1CN(CCC1C(C2=CC3=C(C=C2)OCO3)(C4=CC5=C(C=C4)OCO5)O)C(=O)OC6=CC=C(C=C6)[N+](=O)[O-] [JZL-184] + CS(=O)(=O)N1CCN(Cc2cc3nc(-c4cccc5[nH]ncc45)nc(N4CCOCC4)c3s2)CC1 [Pictilisib] (partner 1 µM)
How it was run: as §1

[4] = compound: C1CN(CCC1C(C2=CC3=C(C=C2)OCO3)(C4=CC5=C(C=C4)OCO5)O)C(=O)OC6=CC=C(C=C6)[N+](=O)[O-] [JZL-184] + CC(=O)Nc1cccc(-n2c(=O)n(C3CC3)c(=O)c3c(Nc4ccc(I)cc4F)n(C)c(=O)c(C)c32)c1 [Trametinib] (partner 0.02 µM)
How it was run: as §1

[5] = compound: C1CN(CCC1C(C2=CC3=C(C=C2)OCO3)(C4=CC5=C(C=C4)OCO5)O)C(=O)OC6=CC=C(C=C6)[N+](=O)[O-] [JZL-184] + CCNC(=O)c1noc(-c2cc(C(C)C)c(O)cc2O)c1-c1ccc(CN2CCOCC2)cc1 [Luminespib] (partner 0.01 µM)
How it was run: as §1

Cell Line	relative viability ([1]; first compound 0.04 µM)	relative viability ([1]; first compound 0.4 µM)	relative viability ([1]; first compound 1.265 µM)	relative viability ([1]; first compound 4 µM)	relative viability ([2]; first compound 0.04 µM)	relative viability ([2]; first compound 0.4 µM)	relative viability ([2]; first compound 1.265 µM)	relative viability ([2]; first compound 4 µM)	relative viability ([3]; first compound 0.04 µM)	relative viability ([3]; first compound 0.4 µM)	relative viability ([3]; first compound 1.265 µM)	relative viability ([3]; first compound 4 µM)	relative viability ([4]; first compound 0.04 µM)	relative viability ([4]; first compound 0.4 µM)	relative viability ([4]; first compound 1.265 µM)	relative viability ([4]; first compound 4 µM)	relative viability ([5]; first compound 0.04 µM)	relative viability ([5]; first compound 0.4 µM)	relative viability ([5]; first compound 1.265 µM)	relative viability ([5]; first compound 4 µM)
201T	0.383	0.339	0.373	0.344	1.09	1.06	0.981	1.02	0.743	0.67	0.727	0.649	0.676	0.724	0.706	0.688	1.05	1.05	1.04	1.03
A549	–	–	–	–	1.06	0.967	0.955	1.01	0.643	0.451	0.478	0.498	–	–	–	–	–	–	–	–
A-427	0.588	0.515	0.518	0.536	1.17	1.05	1.01	1.09	0.797	0.639	0.852	0.697	0.757	0.75	0.821	0.684	1.14	0.79	1.11	0.972
ABC-1	0.861	0.641	0.399	0.696	1.09	0.947	1.07	1.19	0.946	0.71	0.898	0.625	–	–	–	–	1.23	0.557	0.628	0.495
BEN	0.457	0.46	0.445	0.491	0.865	0.671	0.939	0.819	0.661	0.515	0.637	0.54	0.967	1.06	1.07	1.04	0.421	0.318	0.67	0.281
CAL-12T	0.692	0.314	0.508	0.576	0.701	0.529	0.789	0.593	0.415	0.263	0.686	0.422	0.341	0.356	0.352	0.341	0.478	0.449	0.849	0.395
COR-L23	0.337	0.234	0.287	0.273	1.26	0.818	0.889	0.823	0.945	0.775	0.842	0.757	0.774	0.516	0.684	0.54	0.776	0.7	0.781	0.642
COR-L 105	0.464	0.376	0.371	0.409	0.349	0.352	0.394	0.327	0.448	0.41	0.368	0.37	0.454	0.443	0.439	0.414	0.899	0.818	0.901	0.741
ChaGo-K-1	1	0.933	0.975	0.951	–	–	–	–	1.03	0.585	1.04	0.741	0.925	0.849	0.929	0.788	0.592	0.591	0.623	0.598
EKVX	0.436	0.331	0.323	0.371	0.193	0.221	0.194	0.2	0.501	0.407	0.446	0.432	0.322	0.348	0.364	0.359	0.795	0.71	0.944	0.863
EMC-BAC-2	0.584	0.458	0.508	0.512	0.96	0.869	0.971	0.83	0.59	0.559	0.565	0.488	0.955	0.899	0.832	0.827	1.26	1.11	1.24	1.09
EPLC-272H	0.331	0.314	0.326	0.297	1.07	1.02	0.972	0.944	0.317	0.271	0.38	0.314	0.288	0.32	0.272	0.23	0.242	0.241	0.886	0.84
H3255	0.353	0.322	0.343	0.323	0.234	0.267	0.261	0.321	0.524	0.454	0.526	0.49	0.71	0.581	0.684	0.549	1.03	0.765	1	0.938
HARA	0.25	0.204	0.273	0.238	0.839	0.773	0.807	0.751	0.356	0.363	0.424	0.577	0.678	–	0.652	0.696	0.808	0.739	1.03	0.757
HCC-15	0.732	0.77	0.71	0.698	0.988	0.813	0.943	0.778	0.957	0.664	0.814	0.697	0.384	0.353	0.413	0.431	0.421	0.294	0.343	0.339
HCC-44	0.965	0.967	1.03	0.981	1.15	0.93	1.08	1.07	0.592	0.549	0.622	0.528	1.04	1.07	1.04	1.01	1.59	0.973	1.09	1.09
